From ChEMBL document CHEMBL1201862, “PubChem BioAssay data set” (2004)
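Growth conditions: 96-well plates. Treatment: test compound, 48 hours, 5 concentrations. Analysis: linear interpolation between bracketing concentrations; unreached endpoints set to highest concentration. Abbreviation: GI50, concentration required for 50% inhibition of growth.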 The source made the active and inactive calls. Rule as the data show it: active = GI50 up to about 1.1 µM and inactive = higher.

Columns and labels:
Assay in all cases: NCI-60 cell line screen, 48 h
SN12C = tested on: SN12C
NCI-H226 = tested on: NCI-H226
M14 = tested on: M14
A549 = tested on: A549
OVCAR-3 = tested on: OVCAR-3
EKVX = tested on: EKVX
K562 = tested on: K562
SNB-75 = tested on: SNB-75
KM12 = tested on: KM12
DLD-1 = tested on: DLD-1
LOX IMVI = tested on: LOX IMVI
NCI-H460 = tested on: NCI-H460
SF-295 = tested on: SF-295
HOP-62 = tested on: HOP-62
UACC-62 = tested on: UACC-62
DMS-273 = tested on: DMS-273
SF-539 = tested on: SF-539
OVCAR-5 = tested on: OVCAR-5
HCT-116 = tested on: HCT-116
NCI-H522 = tested on: NCI-H522
SR = tested on: SR
U-251 = tested on: U-251
RXF 393 = tested on: RXF 393
HL-60 = tested on: HL-60
KM-20L2 = tested on: KM-20L2
COLO 205 = tested on: COLO 205
IGROV-1 = tested on: IGROV-1
TK-10 = tested on: TK-10
OVCAR-4 = tested on: OVCAR-4
SK-MEL-28 = tested on: SK-MEL-28
SK-MEL-5 = tested on: SK-MEL-5
OVCAR-8 = tested on: OVCAR-8
Malme-3M = tested on: Malme-3M
RPMI-8226 = tested on: RPMI-8226
MOLT-4 = tested on: MOLT-4
ACHN = tested on: ACHN
SNB-19 = tested on: SNB-19
UACC-257 = tested on: UACC-257
CCRF-CEM = tested on: CCRF-CEM
M19-MEL = tested on: M19-MEL
UO-31 = tested on: UO-31
SNB-78 = tested on: SNB-78
SK-OV-3 = tested on: SK-OV-3
SF-268 = tested on: SF-268
XF498 = tested on: XF498
SK-MEL-2 = tested on: SK-MEL-2
HCC 2998 = tested on: HCC 2998
CAKI-1 = tested on: CAKI-1
DMS-114 = tested on: DMS-114
HT-29 = tested on: HT-29
HCT-15 = tested on: HCT-15
786-0 = tested on: 786-0
LXFL 529 = tested on: LXFL 529
RXF 631 = tested on: RXF 631
HOP-18 = tested on: HOP-18
A498 = tested on: A498
HOP-92 = tested on: HOP-92
SW-620 = tested on: SW-620
NCI-H23 = tested on: NCI-H23

Structure (SMILES): CC1(O)CCC2(C#N)CCC1C2O (stereo not given)
- GI50 (SN12C): > 100 µM (inactive)
- GI50 (NCI-H226): > 100 µM (inactive)
- GI50 (M14): > 100 µM (inactive)
- GI50 (A549): > 100 µM (inactive)
- GI50 (OVCAR-3): > 100 µM (inactive)
- GI50 (EKVX): > 100 µM (inactive)
- GI50 (K562): > 100 µM (inactive)
- GI50 (SNB-75): > 100 µM (inactive)
- GI50 (KM12): > 100 µM (inactive)
- GI50 (DLD-1): 34 µM (inactive)
- GI50 (LOX IMVI): 23.2 µM (inactive)
- GI50 (NCI-H460): 43.9 µM (inactive)
- GI50 (SF-295): > 100 µM (inactive)
- GI50 (HOP-62): > 100 µM (inactive)
- GI50 (UACC-62): > 100 µM (inactive)
- GI50 (DMS-273): 94.4 µM (inactive)
- GI50 (SF-539): > 100 µM (inactive)
- GI50 (OVCAR-5): > 100 µM (inactive)
- GI50 (HCT-116): 43.5 µM (inactive)
- GI50 (NCI-H522): 50.6 µM (inactive)
- GI50 (SR): 20.3 µM (inactive)
- GI50 (U-251): > 100 µM (inactive)
- GI50 (RXF 393): > 100 µM (inactive)
- GI50 (HL-60): > 100 µM (inactive)
- GI50 (KM-20L2): 62.2 µM (inactive)
- GI50 (COLO 205): 33.9 µM (inactive)
- GI50 (IGROV-1): > 100 µM (inactive)
- GI50 (TK-10): > 100 µM (inactive)
- GI50 (OVCAR-4): > 100 µM (inactive)
- GI50 (SK-MEL-28): > 100 µM (inactive)
- GI50 (SK-MEL-5): > 100 µM (inactive)
- GI50 (OVCAR-8): > 100 µM (inactive)
- GI50 (Malme-3M): > 100 µM (inactive)
- GI50 (RPMI-8226): 26.5 µM (inactive)
- GI50 (MOLT-4): > 100 µM (inactive)
- GI50 (ACHN): > 100 µM (inactive)
- GI50 (SNB-19): > 100 µM (inactive)
- GI50 (UACC-257): > 100 µM (inactive)
- GI50 (CCRF-CEM): 49 µM (inactive)
- GI50 (M19-MEL): > 100 µM (inactive)
- GI50 (UO-31): > 100 µM (inactive)
- GI50 (SNB-78): > 100 µM (inactive)
- GI50 (SK-OV-3): > 100 µM (inactive)
- GI50 (SF-268): > 100 µM (inactive)
- GI50 (XF498): > 100 µM (inactive)
- GI50 (SK-MEL-2): > 100 µM (inactive)
- GI50 (HCC 2998): > 100 µM (inactive)
- GI50 (CAKI-1): > 100 µM (inactive)
- GI50 (DMS-114): 16.2 µM (inactive)
- GI50 (HT-29): > 100 µM (inactive)
- GI50 (HCT-15): > 100 µM
- GI50 (786-0): > 100 µM (inactive)
- GI50 (LXFL 529): > 100 µM (inactive)
- GI50 (RXF 631): > 100 µM (inactive)
- GI50 (HOP-18): > 100 µM (inactive)
- GI50 (A498): > 100 µM (inactive)

Structure (SMILES): COc1cc(-c2nnc3n2NC=C(C(=O)O)S3)cc(OC)c1OC
- GI50 (SN12C): > 93.1 µM (inactive)
- GI50 (NCI-H226): > 100 µM (inactive)
- GI50 (M14): > 81.3 µM (inactive)
- GI50 (A549): > 100 µM (inactive)
- GI50 (OVCAR-3): > 100 µM (inactive)
- GI50 (EKVX): > 100 µM (inactive)
- GI50 (K562): > 43.1 µM (inactive)
- GI50 (SNB-75): > 100 µM (inactive)
- GI50 (KM12): > 95.1 µM (inactive)
- GI50 (DLD-1): > 57.8 µM (inactive)
- GI50 (LOX IMVI): > 100 µM (inactive)
- GI50 (NCI-H460): > 71.4 µM (inactive)
- GI50 (SF-295): > 100 µM (inactive)
- GI50 (HOP-62): > 100 µM (inactive)
- GI50 (UACC-62): > 93.5 µM (inactive)
- GI50 (HOP-92): > 100 µM (inactive)
- GI50 (DMS-273): > 60.3 µM (inactive)
- GI50 (SF-539): > 42.8 µM (inactive)
- GI50 (OVCAR-5): > 100 µM (inactive)
- GI50 (HCT-116): > 55.1 µM (inactive)
- GI50 (NCI-H522): > 100 µM (inactive)
- GI50 (SR): 41.6 µM (inactive)
- GI50 (U-251): > 68.2 µM (inactive)
- GI50 (RXF 393): > 100 µM (inactive)
- GI50 (HL-60): > 61.4 µM (inactive)
- GI50 (KM-20L2): > 59.2 µM (inactive)
- GI50 (COLO 205): > 57.5 µM (inactive)
- GI50 (IGROV-1): > 100 µM (inactive)
- GI50 (TK-10): > 100 µM (inactive)
- GI50 (OVCAR-4): > 62.2 µM (inactive)
- GI50 (SK-MEL-28): > 100 µM (inactive)
- GI50 (SK-MEL-5): > 100 µM (inactive)
- GI50 (OVCAR-8): > 100 µM (inactive)
- GI50 (Malme-3M): > 100 µM (inactive)
- GI50 (RPMI-8226): > 49.4 µM (inactive)
- GI50 (MOLT-4): > 100 µM (inactive)
- GI50 (ACHN): > 100 µM (inactive)
- GI50 (SNB-19): > 100 µM (inactive)
- GI50 (UACC-257): > 100 µM (inactive)
- GI50 (CCRF-CEM): 29.7 µM (inactive)
- GI50 (M19-MEL): > 69.3 µM (inactive)
- GI50 (UO-31): > 100 µM (inactive)
- GI50 (SNB-78): > 100 µM (inactive)
- GI50 (SK-OV-3): > 100 µM (inactive)
- GI50 (SF-268): > 76.9 µM (inactive)
- GI50 (XF498): > 100 µM (inactive)
- GI50 (SK-MEL-2): > 100 µM (inactive)
- GI50 (SW-620): > 39.5 µM (inactive)
- GI50 (NCI-H23): > 100 µM (inactive)
- GI50 (HCC 2998): > 100 µM (inactive)
- GI50 (CAKI-1): > 100 µM (inactive)
- GI50 (DMS-114): > 56.5 µM (inactive)
- GI50 (HT-29): > 100 µM (inactive)
- GI50 (HCT-15): > 54.5 µM
- GI50 (786-0): > 58.7 µM (inactive)
- GI50 (LXFL 529): > 71.6 µM (inactive)
- GI50 (RXF 631): > 100 µM (inactive)
- GI50 (HOP-18): > 70.1 µM (inactive)
- GI50 (A498): > 100 µM (inactive)
